Read-outs that look alike come from different tables or passages of the source.

For the data set, the system named is Anopheles stephensi. In words: Anopheles stephensi treated well plate contact test: knockdown and mortality. It counts as in vivo. Particulars: for mortality at 0.02 ppm / pest or weed control at 0.02 ppm / mortality at 0.2 ppm / pest or weed control at 0.2 ppm / mortality at 2 ppm / pest or weed control at 2 ppm / mortality at 20 ppm / pest or weed control at 20 ppm / mortality at 200 ppm / pest or weed control at 200 ppm: Anopheles stephensi; for mortality at 0.02 ppm / pest or weed control at 0.02 ppm: test compound 0.02 ppm; for mortality at 0.02 ppm / pest or weed control at 0.02 ppm / mortality at 0.2 ppm / pest or weed control at 0.2 ppm / mortality at 2 ppm / pest or weed control at 2 ppm / mortality at 20 ppm / pest or weed control at 20 ppm / mortality % 24, without TFNA-AM / mortality % 48, without TFNA-AM / Knock Down, without TFNA-AM / mortality at 200 ppm / pest or weed control at 200 ppm: without TFNA-AM; for pest or weed control at 0.02 ppm / pest or weed control at 0.2 ppm / pest or weed control at 2 ppm / pest or weed control at 20 ppm / Knock Down, with TFNA-AM / Knock Down, without TFNA-AM / pest or weed control at 200 ppm: knockdown after 1 hour; for pest or weed control at 0.02 ppm / pest or weed control at 0.2 ppm / pest or weed control at 2 ppm / pest or weed control at 20 ppm / pest or weed control at 200 ppm: read-out: Knock Down, without TFNA-AM. In outline: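 Well surfaces coated with ethanol solution of compound at a defined concentration, alone or with 2 ppm TFNA-AM, then dried. Five non-blood-fed 2–5-day-old adult females per well, fed 10% sucrose; knockdown scored at 1 hour, mortality at 24 and 48 hours, replicate means reported.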

Where [1] appears, read: after 24 hours, read-out: mortality % 24, without TFNA-AM.
The mark [2] stands for this setting: after 48 hours, read-out: mortality % 48, without TFNA-AM.
[3] abbreviates: test compound 0.2 ppm, after 24 hours, read-out: mortality % 24, without TFNA-AM.
[4] abbreviates: test compound 0.2 ppm, after 48 hours, read-out: mortality % 48, without TFNA-AM.
[5] abbreviates: test compound 2 ppm, after 24 hours, read-out: mortality % 24, without TFNA-AM.
Where [6] appears, read: test compound 2 ppm, after 48 hours, read-out: mortality % 48, without TFNA-AM.
Setting [7] is: test compound 20 ppm, after 24 hours, read-out: mortality % 24, without TFNA-AM.
The mark [8] stands for this setting: test compound 20 ppm, after 48 hours, read-out: mortality % 48, without TFNA-AM.
[9] abbreviates: test compound 0.02 ppm plus 2 ppm TFNA-AM, after 24 hours.
Where [10] appears, read: test compound 0.02 ppm plus 2 ppm TFNA-AM.
Setting [11] is: test compound 0.2 ppm plus 2 ppm TFNA-AM, after 24 hours.
The mark [12] stands for this setting: test compound 0.2 ppm plus 2 ppm TFNA-AM, after 48 hours.
Setting [13] is: test compound 0.2 ppm plus 2 ppm TFNA-AM.
[14] abbreviates: test compound 2 ppm plus 2 ppm TFNA-AM, after 24 hours.
[15] abbreviates: test compound 2 ppm plus 2 ppm TFNA-AM, after 48 hours.
The mark [16] stands for this setting: test compound 2 ppm plus 2 ppm TFNA-AM.
Where [17] appears, read: test compound 20 ppm plus 2 ppm TFNA-AM, after 24 hours.
The mark [18] stands for this setting: test compound 20 ppm plus 2 ppm TFNA-AM, after 48 hours.
[19] abbreviates: test compound 20 ppm plus 2 ppm TFNA-AM.
Where [20] appears, read: test compound 0.2 ppm, after 24 hours.
[21] abbreviates: test compound 0.2 ppm, after 48 hours.
The mark [22] stands for this setting: test compound 2 ppm, after 24 hours.
The mark [23] stands for this setting: test compound 2 ppm, after 48 hours.
Setting [24] is: test compound 20 ppm, after 24 hours.
Setting [25] is: test compound 20 ppm, after 48 hours.
[26] abbreviates: test compound 200 ppm plus 2 ppm TFNA-AM, after 24 hours.
Setting [27] is: test compound 200 ppm plus 2 ppm TFNA-AM, after 48 hours.
The mark [28] stands for this setting: test compound 200 ppm plus 2 ppm TFNA-AM.
Where [29] appears, read: test compound 200 ppm, after 24 hours.
Setting [30] is: test compound 200 ppm, after 48 hours.
Where [31] appears, read: test compound 200 ppm, adult females.
Where [32] appears, read: test compound 200 ppm, after 24 hours, read-out: mortality % 24, without TFNA-AM.
The mark [33] stands for this setting: test compound 200 ppm, after 48 hours, read-out: mortality % 48, without TFNA-AM.

As to `CC1(C)C(C=C(Cl)Cl)C1C(=O)OC(C#N)c1cccc(Oc2ccccc2)c1` (centres unmarked) [Cypermethrin], the pest or weed control at 0.02 ppm was determined as 0%. Also, under setting [1], the mortality at 0.02 ppm stood at 0%. Besides, the mortality at 0.02 ppm under setting [2] worked out at 20%. The mortality at 0.2 ppm under setting [3] came out at 0%. The mortality at 0.2 ppm under setting [4] is 40%. The pest or weed control at 0.2 ppm (test compound 0.2 ppm) stood at 0%. For the same compound, under setting [5], the mortality at 2 ppm is 100%. Moreover, under setting [6], the mortality at 2 ppm was 100%. Further, the pest or weed control at 2 ppm (test compound 2 ppm) amounted to 100%. The mortality at 20 ppm under setting [7] amounted to 100%. Further, the mortality at 20 ppm under setting [8] stood at 100%. The pest or weed control at 20 ppm (test compound 20 ppm) is 100%. Further, the “mortality % 24, with TFNA-AM” value under setting [9] worked out at 80%. The “Knock Down, with TFNA-AM” value under setting [10] worked out at 100%. For the same compound, the “mortality % 24, with TFNA-AM” value under setting [11] amounted to 100%. The “mortality % 48, with TFNA-AM” value under setting [12] was found to be 100%. Moreover, under setting [13], the “Knock Down, with TFNA-AM” value stood at 100%. Also, under setting [14], the “mortality % 24, with TFNA-AM” value was 100%. The “mortality % 48, with TFNA-AM” value under setting [15] was found to be 100%. The “Knock Down, with TFNA-AM” value under setting [16] was 100%. Moreover, the “mortality % 24, with TFNA-AM” value under setting [17] is given as 100%. In addition, under setting [18], the “mortality % 48, with TFNA-AM” value is recorded as 100%. Also, under setting [19], the “Knock Down, with TFNA-AM” value came to 100%.

Consider Emamectin benzoate, for which the “mortality % 24, with TFNA-AM” value under setting [11] was 30%; the “mortality % 24, with TFNA-AM” value under setting [14] is listed as 60%; the “mortality % 24, with TFNA-AM” value under setting [17] is given as 100%; the “mortality % 24, with TFNA-AM” value under setting [26] was 100%. Also, the “mortality % 48, with TFNA-AM” value is 20% under setting [12], 60% under setting [15], 100% under setting [18] and 100% under setting [27]. Besides, the “Knock Down, with TFNA-AM” value came to 100% under setting [13], 100% under setting [16], 100% under setting [19] and 100% under setting [28]. The “mortality % 24, without TFNA-AM” value is, setting by setting: under setting [20], 0%; under setting [22], 0%; under setting [24], 40%; under setting [29], 40%. Besides, the “mortality % 48, without TFNA-AM” value is, setting by setting: under setting [21], 0%; under setting [23], 10%; under setting [25], 90%; under setting [30], 90%. For the same compound, the “Knock Down, without TFNA-AM” value (test compound 0.2 ppm) is 0%; the “Knock Down, without TFNA-AM” value (test compound 2 ppm) was 0%; the “Knock Down, without TFNA-AM” value (test compound 20 ppm) worked out at 0%; the “Knock Down, without TFNA-AM” value under setting [31] is on record as 0%.

On to `CON=C(C(=O)OC)c1ccccc1CON=C(C)c1cccc(C(F)(F)F)c1` [Trifloxystrobin], for which the mortality at 0.2 ppm stood at 0% under setting [3] and 0% under setting [4]. The pest or weed control at 0.2 ppm (test compound 0.2 ppm) was found to be 0%. Besides, the mortality at 2 ppm reads like this: under setting [5], 0%; under setting [6], 0%. For the setting “test compound 2 ppm”, the pest or weed control at 2 ppm was 50%. Also, the mortality at 20 ppm runs as follows: under setting [7], 0%; under setting [8], 0%. Also, the pest or weed control at 20 ppm (test compound 20 ppm) was 70%. In addition, the mortality at 200 ppm came to 0% under setting [32] and 0% under setting [33]. Under setting [31], the pest or weed control at 200 ppm came to 80%. The “mortality % 24, with TFNA-AM” value under setting [11] came out at 0%; the “mortality % 24, with TFNA-AM” value under setting [14] turned out to be 60%; the “mortality % 24, with TFNA-AM” value under setting [17] is on record as 100%; the “mortality % 24, with TFNA-AM” value under setting [26] came out at 100%. Further, the “mortality % 48, with TFNA-AM” value under setting [12] stood at 0%; the “mortality % 48, with TFNA-AM” value under setting [15] is 70%; the “mortality % 48, with TFNA-AM” value under setting [18] worked out at 100%; the “mortality % 48, with TFNA-AM” value under setting [27] is on record as 100%. Moreover, the “Knock Down, with TFNA-AM” value is listed as 100% under setting [13], 100% under setting [16], 100% under setting [19] and 100% under setting [28].

Consider `N#Cc1ccc(CC(=NNC(=O)Nc2ccc(OC(F)(F)F)cc2)c2cccc(C(F)(F)F)c2)cc1` (mixture of isomers) [Metaflumizone], for which the “mortality % 24, with TFNA-AM” value under setting [11] is reported as 40%; the “mortality % 24, with TFNA-AM” value under setting [14] worked out at 100%; the “mortality % 24, with TFNA-AM” value under setting [17] stood at 100%; the “mortality % 24, with TFNA-AM” value under setting [26] is 100%. For the same compound, the “mortality % 48, with TFNA-AM” value amounted to 60% under setting [12], 100% under setting [15], 100% under setting [18] and 100% under setting [27]. For the same compound, the “Knock Down, with TFNA-AM” value is, setting by setting: under setting [13], 100%; under setting [16], 100%; under setting [19], 100%; under setting [28], 100%. For the same compound, the “mortality % 24, without TFNA-AM” value reads like this: under setting [20], 0%; under setting [22], 0%; under setting [24], 0%; under setting [29], 0%. Also, the “mortality % 48, without TFNA-AM” value is 0% under setting [21], 0% under setting [23], 0% under setting [25] and 80% under setting [30]. In addition, the “Knock Down, without TFNA-AM” value is, setting by setting: (test compound 0.2 ppm) 0%; (test compound 2 ppm) 0%; (test compound 20 ppm) 0%; under setting [31], 0%.

In the case of `CC(C)N1C(=O)N(c2ccccc2)CS/C1=N\C(C)(C)C` [Buprofezin], the mortality at 0.2 ppm under setting [3] came to 0% and the mortality at 0.2 ppm under setting [4] was determined as 0%. Moreover, where the note is “test compound 0.2 ppm”, the pest or weed control at 0.2 ppm was found to be 0%. For the same compound, the mortality at 2 ppm is, setting by setting: under setting [5], 0%; under setting [6], 0%. Where the note is “test compound 2 ppm”, the pest or weed control at 2 ppm worked out at 0%. Also, the mortality at 20 ppm came to 0% under setting [7] and 0% under setting [8]. Moreover, for the setting “test compound 20 ppm”, the pest or weed control at 20 ppm was 0%. Besides, the mortality at 200 ppm under setting [32] was determined as 0% and the mortality at 200 ppm under setting [33] turned out to be 0%. The pest or weed control at 200 ppm under setting [31] worked out at 0%. In addition, the “mortality % 24, with TFNA-AM” value was found to be 80% under setting [11], 100% under setting [14], 100% under setting [17] and 80% under setting [26]. The “mortality % 48, with TFNA-AM” value is, setting by setting: under setting [12], 60%; under setting [15], 60%; under setting [18], 60%; under setting [27], 40%. For the same compound, the “Knock Down, with TFNA-AM” value reads like this: under setting [13], 100%; under setting [16], 100%; under setting [19], 100%; under setting [28], 100%.

As to `N#Cc1nn(-c2c(Cl)cc(C(F)(F)F)cc2Cl)c(N)c1[S+]([O-])C(F)(F)F` (centres unmarked) [Fipronil], the pest or weed control at 0.02 ppm came out at 0%. For the same compound, the mortality at 0.02 ppm under setting [1] is 0%. For the same compound, the mortality at 0.02 ppm under setting [2] is 20%. Moreover, under setting [3], the mortality at 0.2 ppm turned out to be 20%. Moreover, under setting [4], the mortality at 0.2 ppm was 40%. Further, the pest or weed control at 0.2 ppm (test compound 0.2 ppm) stood at 0%. Besides, under setting [5], the mortality at 2 ppm stood at 40%. In addition, under setting [6], the mortality at 2 ppm stood at 100%. Moreover, the pest or weed control at 2 ppm (test compound 2 ppm) turned out to be 0%. Further, the mortality at 20 ppm under setting [7] amounted to 100%. Further, the mortality at 20 ppm under setting [8] is 100%. In addition, the pest or weed control at 20 ppm (test compound 20 ppm) is 0%. In addition, the “mortality % 24, with TFNA-AM” value under setting [9] is listed as 0%. For the setting “test compound 0.02 ppm plus 2 ppm TFNA-AM, after 48 hours”, the “mortality % 48, with TFNA-AM” value is reported as 0%. The “Knock Down, with TFNA-AM” value under setting [10] is 100%. Also, under setting [11], the “mortality % 24, with TFNA-AM” value is listed as 60%. The “mortality % 48, with TFNA-AM” value under setting [12] stood at 100%. Also, the “Knock Down, with TFNA-AM” value under setting [13] was determined as 100%. Moreover, under setting [14], the “mortality % 24, with TFNA-AM” value is 80%. Further, the “mortality % 48, with TFNA-AM” value under setting [15] is 100%. The “Knock Down, with TFNA-AM” value under setting [16] came to 100%. For the same compound, the “mortality % 24, with TFNA-AM” value under setting [17] was determined as 100%. The “mortality % 48, with TFNA-AM” value under setting [18] turned out to be 100%. Under setting [19], the “Knock Down, with TFNA-AM” value was 100%.
